Results taken from patent US20130281445A1 (priority 2011, published 2013).

The compounds below were run against T1, Choline Kinase alpha enzyme (Homo sapiens, UniProt P35790) (assay: Choline Kinase Alpha Inhibition Assay (coupled NADH absorbance)). Conditions: not given.
T1 construct: hChoKα1(M1-V457) (NP_001268); GST (N); made in house; host or cells: E. coli BL21(DE3)
T1 sequence (P35790 whole entry): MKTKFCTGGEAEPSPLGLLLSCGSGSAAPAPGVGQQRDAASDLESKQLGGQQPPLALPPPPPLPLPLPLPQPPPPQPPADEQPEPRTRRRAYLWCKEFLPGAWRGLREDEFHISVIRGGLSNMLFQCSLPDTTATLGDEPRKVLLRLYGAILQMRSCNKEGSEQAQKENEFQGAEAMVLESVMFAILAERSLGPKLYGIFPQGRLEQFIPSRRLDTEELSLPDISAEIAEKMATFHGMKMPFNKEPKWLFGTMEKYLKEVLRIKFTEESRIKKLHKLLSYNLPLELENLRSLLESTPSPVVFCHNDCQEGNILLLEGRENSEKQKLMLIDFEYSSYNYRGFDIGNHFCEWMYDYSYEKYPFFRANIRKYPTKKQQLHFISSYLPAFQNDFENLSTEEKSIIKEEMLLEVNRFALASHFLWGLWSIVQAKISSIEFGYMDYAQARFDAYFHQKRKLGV
Assay type: biochemical
Protocol: An assay buffer solution was prepared which consisted of 100 mM Tris-HCl (pH 7.5), 100 mM KCl, and 10 mM MgCl2. An enzyme buffer containing reagents to final assay concentrations of 290 μM NADH, 2.4 mM phosphoenolpyruvate, 60 μg/mL pyruvate kinase, 20 μg/mL lactate dehydrogenase, 200 μM choline chloride substrate and 20 nM Choline Kinase alpha enzyme was prepared in assay buffer. To 32 μL of this enzyme buffer, in a 96 well plate, was added 2 μL of VRT stock solution in DMSO. The mixture was allowed to equilibrate for 10 mins at 25° C. The enzyme reaction was initiated by the addition of 32 μL stock ATP solution prepared in assay buffer to a final assay concentration of 400 μM. Initial rate data was determined from the rate of change of absorbance at 340 nm (corresponding to stoichiometric consumption of NADH) using a Molecular Devices Spectramax plate reader (Sunnyvale, Calif.) over 15 mins at 25° C. For each IC50 determination, 12 data points covering the VRT concentration range of 0-100 μM were obtained in duplicate (DMSO stocks were prepared from an initial 10 mM VRT stock with subsequent 1:2.5 serial dilutions). IC50 values were calculated from initial rate data using the Prism software package (Prism 4.0a, Graphpad Software, San Diego, Calif.).
hChoKα1(M1-V457) (NP_001268) was codon optimized for E. coli and cloned into a modified pGEX-2T vector. Recombinant GST-tagged ChoKα1 protein was produced in E. coli strain BL21(DE3). After growing cell cultures at 37° C. until the OD600=1, the cultures were induced with 1 mM IPTG for 16 h at 30° C. and the cells were harvested as a pellet (8500 rpm, 4° C., 20 min). The protein was purified using glutathione affinity purification followed by size exclusion via Superdex-200 26/60 (GE Healthcare). See Malito, Enrico et. al., “Journal of Molecular Biology”, Volume 364, Issue 2, pages 136-151 (November 2006).
Work on CN(C)c1ccc(C(=O)C2CN3CCC2CC3)cc1 (stereo not drawn) [Compound I-1, (4-dimethylaminophenyl)-quinuclidin-3-yl-methanone] yielded an IC50 of less than 100 nM.
O=C(c1ccc(-c2ccccc2)cc1)C1CN2CCC1CC2 (stereo not drawn) [Compound I-14, (4-phenylphenyl)-quinuclidin-3-yl-methanone] gave an IC50 of 1000 to 50000 nM.
Work on CN1CCOc2cc(C(=O)C3CN4CCC3CC4)ccc21 (stereo not drawn) [Compound I-5] yielded an IC50 of less than 100 nM.
Work on O=C(c1ccc(N2CCCC2)cc1)C1CN2CCC1CC2 (stereo not drawn) [Compound I-3, (4-pyrrolidin-1-ylphenyl)-quinuclidin-3-yl-methanone] yielded an IC50 of less than 100 nM.

Same assay, conditions: 20 nM enzyme, 200 μM choline chloride, 400 μM ATP, 25° C.; read-out: IC50 values, Choline Kinase Alpha inhibition
O=C(c1cccc(Cl)c1)C1CN2CCC1CC2 (stereo not drawn) [Compound I-33, (3-chlorophenyl)-quinuclidin-3-yl-methanone] gave an IC50 of 1000 to 50000 nM.
CN1CCN(C)c2cc(C(=O)C3CN4CCC3CC4)ccc21 (stereo not drawn) [Compound I-28, (1,4-dimethyl-2,3-dihydroquinoxalin-6-yl)-quinuclidin-3-yl-methanone] showed an IC50 of 100 to 1000 nM.
O=C(c1ccccc1)C1CN2CCC1CC2 (stereo not drawn) [Compound I-35, phenyl(quinuclidin-3-yl)methanone] was tested, and the IC50 was 1000 to 50000 nM.
Cc1ccccc1C(=O)C1CN2CCC1CC2 (stereo not drawn) [Compound I-31, o-tolyl(quinuclidin-3-yl)methanone] showed an IC50 of 1000 to 50000 nM.
O=C(c1ccc(N2CCCCC2)cc1)C1CN2CCC1CC2 (stereo not drawn) [Compound I-4, [4-(1-piperidyl)phenyl]-quinuclidin-3-yl-methanone] was tested, and the IC50 was 100 to 1000 nM.
Cc1ccc(C(=O)C2CN3CCC2CC3)cc1 (stereo not drawn) [Compound I-32, p-tolyl(quinuclidin-3-yl)methanone] showed an IC50 of 1000 to 50000 nM.
Compound CC(C)(C)c1ccc(C(=O)C2CN3CCC2CC3)cc1 (stereo not drawn) [Compound I-20, (4-tert-butylphenyl)-quinuclidin-3-yl-methanone] has an IC50 of 100 to 1000 nM.
For O=C(c1ccc(Cl)cc1)C1CN2CCC1CC2 (stereo not drawn) [Compound I-34, (4-chlorophenyl)-quinuclidin-3-yl-methanone], the IC50 was 1000 to 50000 nM.
Work on CCc1ccc(C(=O)C2CN3CCC2CC3)cc1 (stereo not drawn) [Compound I-16, (4-ethylphenyl)-quinuclidin-3-yl-methanone] yielded an IC50 of 100 to 1000 nM.
In the case of Cc1ncccc1C(=O)C1CN2CCC1CC2 (stereo not drawn) [Compound I-24, (2-methyl-3-pyridyl)-quinuclidin-3-yl-methanone], the IC50 is reported as 1000 to 50000 nM.
Work on COc1cc(OC)cc(C(=O)C2CN3CCC2CC3)c1 (stereo not drawn) [Compound I-12, (3,5-dimethoxyphenyl)-quinuclidin-3-yl-methanone] yielded an IC50 of 1000 to 50000 nM.
Compound CCN(CC)c1ccc(C(=O)C2CN3CCC2CC3)cc1 (stereo not drawn) [Compound I-2, [4-(diethylamino)phenyl]-quinuclidin-3-yl-methanone] has an IC50 of 100 to 1000 nM.
CC(C)c1ccc(C(=O)C2CN3CCC2CC3)cc1 (stereo not drawn) [Compound I-36] showed an IC50 of 100 to 1000 nM.
With O=C(c1cccc(-c2ccccc2)c1)C1CN2CCC1CC2 (stereo not drawn) [Compound I-18, (3-phenylphenyl)-quinuclidin-3-yl-methanone] the IC50 was 1000 to 50000 nM.
In the case of CN(C)c1c(Br)cc(C(=O)C2CN3CCC2CC3)cc1Br (stereo not drawn) [Compound I-26, [3,5-dibromo-4-(dimethylamino)phenyl]-quinuclidin-3-yl-methanone], the IC50 is reported as 1000 to 50000 nM.
Work on O=C(c1ccc(F)c(Cl)c1)C1CN2CCC1CC2 (stereo not drawn) [Compound I-11, (3-chloro-4-fluoro-phenyl)-quinuclidin-3-yl-methanone] yielded an IC50 of 1000 to 50000 nM.
Compound O=C(c1ccc2c(c1)OCO2)C1CN2CCC1CC2 (stereo not drawn) [Compound I-15, 1,3-benzodioxol-5-yl(quinuclidin-3-yl)methanone] has an IC50 of 1000 to 50000 nM.
O=C(c1nc2ccccc2s1)C1CN2CCC1CC2 (stereo not drawn) [Compound I-22, benzo[d]thiazol-2-yl(quinuclidin-3-yl)methanone] showed an IC50 of 1000 to 50000 nM.
O=C(c1cccc(F)c1)C1CN2CCC1CC2 (stereo not drawn) [Compound I-9, (3-fluorophenyl)-quinuclidin-3-yl-methanone] showed an IC50 of 1000 to 50000 nM.
Work on O=C(c1ccc(F)cc1)C1CN2CCC1CC2 (stereo not drawn) [Compound I-10, (4-fluorophenyl)-quinuclidin-3-yl-methanone] yielded an IC50 of 1000 to 50000 nM.
O=C(Cc1ccccc1)C1CN2CCC1CC2 (stereo not drawn) [Compound I-6, 2-phenyl-1-(quinuclidin-3-yl)ethanone] was tested, and the IC50 was 1000 to 50000 nM.
For Cc1cc(C(=O)C2CN3CCC2CC3)ccc1N(C)C (stereo not drawn) [Compound I-27, (4-(dimethylamino)-3-methylphenyl)(quinuclidin-3-yl)methanone], the IC50 was 100 to 1000 nM.
CN(C)c1ccc(C(=O)C2CN3CCC2CC3)cc1Br (stereo not drawn) [Compound I-25, [3-bromo-4-(dimethylamino)phenyl]-quinuclidin-3-yl-methanone] was tested, and the IC50 was 100 to 1000 nM.
O=C(c1ccc2ccccc2c1)C1CN2CCC1CC2 (stereo not drawn) [Compound I-8, 2-naphthyl(quinuclidin-3-yl)methanone] gave an IC50 of 100 to 1000 nM.
CN1CCc2cc(C(=O)C3CN4CCC3CC4)ccc21 (stereo not drawn) [Compound I-30] showed an IC50 of 100 to 1000 nM.
For Cc1cccc(C(=O)C2CN3CCC2CC3)c1C (stereo not drawn) [Compound I-21, (2,3-dimethylphenyl)-quinuclidin-3-yl-methanone], the IC50 was 1000 to 50000 nM.
O=C(c1cccc2ccccc12)C1CN2CCC1CC2 (stereo not drawn) [Compound I-17, 1-naphthyl(quinuclidin-3-yl)methanone] was tested, and the IC50 was 1000 to 50000 nM.
Work on O=C(c1ccc(OC(F)(F)F)cc1)C1CN2CCC1CC2 (stereo not drawn) [Compound I-19, quinuclidin-3-yl-[4-(trifluoromethoxy)phenyl]methanone] yielded an IC50 of 1000 to 50000 nM.
CCCc1ccc(C(=O)C2CN3CCC2CC3)cc1 (stereo not drawn) [Compound I-13, (4-propylphenyl)-quinuclidin-3-yl-methanone] was tested, and the IC50 was 100 to 1000 nM.
Compound Cc1ccc(Cl)cc1C(=O)C1CN2CCC1CC2 (stereo not drawn) [Compound I-23, (5-chloro-2-methylphenyl)(quinuclidin-3-yl)methanone] has an IC50 of 1000 to 50000 nM.
CC(O)c1ccc(C(=O)C2CN3CCC2CC3)cc1 (stereo not drawn) [Compound I-29, [4-(1-hydroxyethyl)phenyl]-quinuclidin-3-yl-methanone] gave an IC50 of 1000 to 50000 nM.
COc1ccc(C(=O)C2CN3CCC2CC3)cc1 (stereo not drawn) [Compound I-7, (4-methoxyphenyl)-quinuclidin-3-yl-methanone] showed an IC50 of 1000 to 50000 nM.
